Experimental data as given in US11136292B2, “Plant growth regulator compounds” (SYNGENTA PARTICIPATIONS AG, priority 2016, dated 2021).
Like-named read-outs stand apart in the source and are kept apart here.

Tested on: NK Falkone 2015 corn seeds
Assay: Corn seed germination under cold stress (Example B1)
Format: in vivo
Settings: Zea mays, cold stress 15° C.; for change in vivo at 2 µM: Rate 2 μM; for change in vivo at 10 µM: Rate 10 μM; for change in vivo at 50 µM: Rate 50 μM; for change in vivo at 250 µM: Rate 250 μM; for change in vivo at 0.4 µM: Rate 0.4 μM
Method: The effect of compounds of formula (I) on the germination of NK Falkone 2015 corn seeds under cold stress was evaluated as follows. NK Falkone corn seeds were sorted by size using 2 sieves, one excluding very big seeds and the other with round holes of 8 to 9 mm diameter. The seeds retained by the latter sieve were used for the germination test. The corn seeds were placed in 24 well plates (each plate was considered as one experimental unit or replicate). Germination was initiated by the addition of 250 μl of distilled water containing 0.5% DMSO per well as a means for compound solubilization. 8 replicates (ie, 8 plates) were used for each treatment characterization. Plates were sealed using seal foil (Polyolefin Art. Nr. 900320) from HJ-BIOANALYTIK. All plates were placed horizontally on trolleys in a climatic chamber at 15° C. The experiment was laid out in a completely randomized design in climatic chamber with 75% Relative Humidity. Foils were pierced, one hole per well using a syringe after 72 hours for experiments performed at 15° C.
Germination was followed over time by taking photographs at different time points. Image analysis was performed automatically with a macro which was developed using the Image J software. A dynamic analysis of germination was carried out by fitting a logistic curve. Three parameters were calculated from the logistic curve: the T50; the slope and the plateau. All three parameters have a high agronomical relevance and are key requirements to ensure a good early crop-establishment. All the values are expressed as percentages compared to an untreated control. All the three parameters are calculated considering 8 replicates and the kinetic parameters are separately determined for each germination curve. Data in bold indicate germination enhancing statistically significant differences between treated seeds and untreated control (p<0.05). The T50 corresponds to the time needed for half of the seed population to germinate. Higher negative %-values indicate faster germination. The slope indicates how synchronous the germination of the seed population is. Positive values indicate steeper curve; the steeper the curve, the better and more uniform the germination is.

[1] = slope of logistic germination curve, read-out: Slope (% vs control)
[2] = time for half of seeds to germinate, control T50 = 110 hours, read-out: T50 (% vs control)

Row | SMILES | change in vivo at 2 µM [1] | change in vivo at 2 µM [2] | change in vivo at 10 µM [1] | change in vivo at 10 µM [2] | change in vivo at 50 µM [1] | change in vivo at 50 µM [2] | change in vivo at 250 µM [1] | change in vivo at 250 µM [2] | change in vivo at 0.4 µM [1] | change in vivo at 0.4 µM [2]
1 | CCOC(=O)/C(=C/OC1C=C(C)C(=O)O1)C1CCc2c1cccc2C(F)(F)F (centres unmarked) [Compound I-70] | 9% | -2.5% | 18.4% | -0.2% | 87.9% | -6.8% | 115% | -8.6% |  | 
2 | CCOC(=O)/C(=C/OC1OC(=O)C(C)=C1C)C1CCc2ccc(C(F)(F)F)cc21 (centres unmarked) [Compound I-73] | -1.1% | -3.5% | 14.2% | -6.3% | 57.8% | -7.8% | 54.1% | -9.2% |  | 
3 | CCOC(=O)/C(=C/OC1OC(=O)C(C)=C1C)C1CCCc2ccccc21 (centres unmarked) [Compound I-75] | 4.9% | -3.5% | 5.6% | -2.6% | 58.4% | -6.5% | 44.2% | -5% |  | 
4 | CCOC(=O)/C(=C/OC1C=C(C)C(=O)O1)C1Cc2ccccc21 (centres unmarked) [Compound I-76] | -5% | -0.7% | 50.6% | -6.4% | 122% | -8.8% |  |  | -5.6% | -0.5%
5 | CCOC(=O)/C(=C/OC1OC(=O)C(C)=C1C)C1CCc2ccsc21 (centres unmarked) [Compound I-83] | 6.5% | -3% | 34.1% | -2.2% | 32.6% | -4.8% | 157% | -8.6% |  | 
6 | CCOC(=O)/C(=C/OC1C=C(C)C(=O)O1)C1CCC[C@@]2(C)CCC12 (some centres unmarked) [Compound I-86] | 17.1% | 0.2% | 20.2% | -2.7% | 138% | -9.7% | 150% | -11.2% |  | 
7 | CCOC(=O)/C(=C/OC1C=C(C)C(=O)O1)C1CCOc2ccccc21 (centres unmarked) [Compound I-90] | -10% | 3.2% | -0.32% | 2.8% | 4.6% | 0.45% | 83.6% | -6.7% |  | 
8 | CCOC(=O)/C(=C/OC1OC(=O)C(C)=C1C)C1CCOc2ccccc21 (centres unmarked) [Compound I-91] | -15.3% | 2.5% | -5.4% | 2.7% | 18.8% | -1.5% | 67.4% | -6.1% |  | 
9 | CCOC(=O)/C(=C/OC1OC(=O)C(C)=C1C)C1COc2ccccc21 (centres unmarked) [Compound I-95] | -2% | 1.6% | -13.9% | 1.6% | 2.7% | 0.6% | 81.5% | -6.7% |  | 
10 | CC1=CC(O/C=C2/C(=O)OC3c4ccccc4CC23)OC1=O (centres unmarked) [Prior art 1] | -0.7% | -1.5% | -11.3% | -0.1% | 6.2% | -1.85% | 36.3% | -3.4% |  | 
11 | CC1=C(C)C(O/C=C2/C(=O)OC3c4ccccc4CC23)OC1=O (centres unmarked) [Prior art 2] | -1.3% | -1.5% | 1.4% | 1.7% | 9.6% | -1.6% | 15.8% | -2.1% |  | 
12 | CC1=CC(O/C=C2/C(=O)OC3Cc4ccccc4C23)OC1=O (centres unmarked) [Prior art 3] | -0.7% | 1.6% | 2.2% | 0% | 4% | -0.8% | 14.1% | -0.5% |  | 
13 | COC(=O)/C(=C/OC1C=C(C)C(=O)O1)c1ccccc1 (centres unmarked) [Prior art 4] | -7.7% | 1.2% | 14.9% | -3.4% | -11.4% | 2.4% | 4.1% | 0.1% |  | 
